# Test results taken from patent US11352354B2, “Substituted penta-fused hexa-heterocyclic compounds, preparation method therefor, drug combination and use thereof” (Xiamen University, priority 2017, dated 2022).
# Entries after “also recorded” stand apart in the source; their conditions may differ.
# Tests used:
# [1] = system: JeKo-1 cells; assay: Lysosomal dysfunction caused by inhibition of PIKfyve, Western Blot of cathepsins in JeKo-1 cells; format: cell-based; conditions: treatment for 24 hr, FIG. 3
# Source text: V. Lysosomal Dysfunction Caused by Inhibition of Compound V-c-17 on PIKfyve (FIG. 3)
# After treatment with V-c-17 for 24 hr, JeKo-1 cells were lysed and tested by Western Blot. […] This was similar to the treatment result with the known PIKfyve inhibitor apilimod.
# [2] = system: JeKo-1 xenograft; assay: Xenograft model of non-Hodgkin's lymphoma cells (JeKo-1) in nude mice; format: in vivo; conditions: 25 mg/kg once a day or twice a day
# Method: 1. 4-6 weeks old female nude mice were injected subcutaneously with about 1×10^7 JeKo-1 cells;
# 2. When tumor volume (length×width×height×π/4) reached about 100 mm^3, the mice were randomly divided into four groups: control group, V-c-17 group with a dose of 25 mg/kg once a day, V-c-17 group with a dose of 25 mg/kg twice a day, and apilimod group with a dose of 25 mg/kg once a day, and the initial tumor volume was recorded.
# 3. The drug or the control solvent was administered intravenously on time every day, the tumor volume was measured every day, and the procedures were continued for 7 days;
# (§1) 4. In the last day, the mice were killed 6 hours after administration, the tumor grown under skin was completely peeled off, and the tumor weight was recorded.
# [3] = system: MDA-MB-231 cells; assay: Vacuolation of MDA-MB-231 cells caused by inhibition of compounds on PIKfyve (microscopy); format: cell-based; conditions: MDA-MB-231 cells; note: key: '+' represents the degree of vacuolation; ++: more '+' indicates more obvious vacuolation; +++: more '+' indicates more obvious vacuolation; ++++: more '+' indicates more obvious vacuolation; '−' represents no vacuolation
# Outline: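 MDA-MB-231 cells in 12-well plates at 37 °C, 5% CO2 were observed by microscopy after 24 and 48 h of culture for cytoplasmic vacuolation as a readout of PIKfyve inhibition. Scoring was semi-quantitative, from − (none) to increasing +.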
# [4] = system: JeKo-1 cells; assay: Tumor cell growth inhibition by MTS method, JeKo-1; format: cell-based; conditions: Homo sapiens, JeKo-1, 120 h, 5 days of culture
# Outline: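 Cells seeded at 20000 per well, treated with 8-point 3-fold dilutions from 10 mM DMSO stock in triplicate, 0.1% DMSO controls. MTS read at OD490; IC50 from inhibition rates, or % inhibition at 10 μM.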
# [5] = system: Toledo cells; assay: Growth inhibition of PIKfyve-mediated tumor cells by Cell Titer Glo method, Toledo; format: cell-based; conditions: Homo sapiens, 120 h, CellTiter-Glo, 5 days of culture, read-out: Inhibition rate % (Toledo)
# Method: (§2) IV. Determination of Growth Inhibition Rates of Compounds Against PIKfyve-Mediated Tumor Cells by Cell Titer Glo Method
# (§3) 1. Cell plating: cells in logarithmic growth phase were counted and inoculated in 384-well plate.
# (§4) 3. […] RLU was measured on PHERAstar Plus.
# [6] = biological target: PIKfyve protein (Homo sapiens (Human), UniProt Q9Y2I7); assay: Dissociation equilibrium constant (Kd) of compound and PIKfyve protein, DiscoverX KINOMEscan; format: binding; conditions: eleven 3-fold dilutions, curve fitting
# PIKfyve protein, sequence (Q9Y2I7 whole entry): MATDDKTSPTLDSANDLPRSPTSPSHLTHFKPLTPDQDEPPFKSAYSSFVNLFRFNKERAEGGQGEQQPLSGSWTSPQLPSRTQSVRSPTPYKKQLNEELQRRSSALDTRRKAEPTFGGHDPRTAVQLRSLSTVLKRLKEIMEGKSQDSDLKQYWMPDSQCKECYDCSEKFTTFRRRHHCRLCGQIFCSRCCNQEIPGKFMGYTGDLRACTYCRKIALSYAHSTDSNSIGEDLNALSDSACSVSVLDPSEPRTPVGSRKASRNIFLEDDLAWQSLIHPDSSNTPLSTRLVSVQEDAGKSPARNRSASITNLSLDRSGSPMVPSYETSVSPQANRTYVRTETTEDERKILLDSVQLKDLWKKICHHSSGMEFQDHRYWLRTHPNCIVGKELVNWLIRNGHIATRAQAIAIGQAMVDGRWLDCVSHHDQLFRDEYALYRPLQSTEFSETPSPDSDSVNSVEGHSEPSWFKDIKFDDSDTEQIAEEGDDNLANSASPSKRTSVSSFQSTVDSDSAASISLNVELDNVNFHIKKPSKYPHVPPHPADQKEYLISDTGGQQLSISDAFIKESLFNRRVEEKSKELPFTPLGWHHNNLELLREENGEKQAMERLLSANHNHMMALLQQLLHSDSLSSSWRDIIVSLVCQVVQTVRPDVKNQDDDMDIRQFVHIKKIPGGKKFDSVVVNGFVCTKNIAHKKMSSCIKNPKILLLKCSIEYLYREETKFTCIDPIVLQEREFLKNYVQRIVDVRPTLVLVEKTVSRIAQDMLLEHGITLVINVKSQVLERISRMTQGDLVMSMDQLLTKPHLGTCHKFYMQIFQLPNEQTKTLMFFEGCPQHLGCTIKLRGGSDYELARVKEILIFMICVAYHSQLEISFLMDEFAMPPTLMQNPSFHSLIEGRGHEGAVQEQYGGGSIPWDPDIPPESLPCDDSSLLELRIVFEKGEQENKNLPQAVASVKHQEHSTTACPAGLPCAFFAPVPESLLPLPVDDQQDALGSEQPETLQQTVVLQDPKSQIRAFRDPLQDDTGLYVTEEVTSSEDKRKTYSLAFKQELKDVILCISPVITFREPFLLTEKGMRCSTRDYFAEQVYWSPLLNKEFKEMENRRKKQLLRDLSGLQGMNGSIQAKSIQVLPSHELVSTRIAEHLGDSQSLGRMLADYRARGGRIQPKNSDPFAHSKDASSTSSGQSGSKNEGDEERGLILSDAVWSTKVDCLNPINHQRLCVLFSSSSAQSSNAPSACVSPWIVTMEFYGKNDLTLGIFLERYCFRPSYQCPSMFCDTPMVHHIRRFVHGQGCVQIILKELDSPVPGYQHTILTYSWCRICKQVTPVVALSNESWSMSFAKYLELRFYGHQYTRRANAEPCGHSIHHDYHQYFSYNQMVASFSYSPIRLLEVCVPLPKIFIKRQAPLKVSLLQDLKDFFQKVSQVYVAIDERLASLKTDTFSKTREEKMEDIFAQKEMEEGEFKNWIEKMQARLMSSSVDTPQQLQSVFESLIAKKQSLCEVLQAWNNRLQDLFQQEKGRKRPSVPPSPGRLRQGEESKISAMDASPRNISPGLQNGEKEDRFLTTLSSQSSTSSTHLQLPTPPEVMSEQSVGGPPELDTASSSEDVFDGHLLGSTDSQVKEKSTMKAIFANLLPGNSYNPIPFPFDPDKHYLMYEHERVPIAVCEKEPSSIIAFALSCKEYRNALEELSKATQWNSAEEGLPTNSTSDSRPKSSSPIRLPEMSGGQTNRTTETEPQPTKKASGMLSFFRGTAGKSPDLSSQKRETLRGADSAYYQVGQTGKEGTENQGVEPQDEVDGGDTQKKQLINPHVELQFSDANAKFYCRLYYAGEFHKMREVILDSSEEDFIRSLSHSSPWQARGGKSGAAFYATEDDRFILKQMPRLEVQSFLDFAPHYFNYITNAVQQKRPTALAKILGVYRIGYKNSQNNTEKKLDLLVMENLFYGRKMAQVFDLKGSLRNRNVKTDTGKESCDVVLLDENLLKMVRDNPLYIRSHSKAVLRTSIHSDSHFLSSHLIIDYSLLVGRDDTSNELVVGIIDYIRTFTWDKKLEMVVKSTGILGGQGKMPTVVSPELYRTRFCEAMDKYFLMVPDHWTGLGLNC
# Method: II. Determination of Dissociation Equilibrium Constant (Kd Value) of Compound and PIKfyve Protein
# The Kd value was determined by DiscoverX's KINOMEscan™ technology according to the following steps:
# 1. Preparation of magnetic beads: biotin-labeled small molecule ligand and avidin-coated magnetic beads were allowed to interact at room temperature for 30 minutes, and then added with excess biotin, followed by washing with a blocking solution (1% BSA, 0.05% Tween 20, 1 mM DTT) to remove unbound ligand.
# 2. Binding reaction: in a 384 plate, 0.02 mL system, DNA-labeled protein, small molecule ligand-bound magnetic beads, and different concentrations of compound to be tested were mixed in a reaction solution (0.17×PBS, 0.05% Tween 20, 6 mM DTT) at room temperature with shaking for 1 hr, to which was added an eluant (1×PBS, 0.05% Tween 20) for elution. Magnetic beads were resuspended by an eluant (1×PBS, 0.05% Tween 20, 0.5 μM non-biotin-labeled small molecule ligand), and shaken at room temperature for 30 min before separating out the eluant.
# 3. Determination of Kd value: the content of protein in the above eluate was determined by qPCR. Eleven 3-fold dilution concentrations were determined for the compound to be tested, with 3 DMSO controls for each concentration, and the Kd value was obtained by curve fitting.
# [7] = system: ST486 cells; assay: Growth inhibition of PIKfyve-mediated tumor cells by Cell Titer Glo method, ST486; format: cell-based; conditions: Homo sapiens, 120 h, CellTiter-Glo, 5 days of culture, read-out: Inhibition rate % (ST486)
# Method: as §2, §3, §4
# [8] = system: BGC823; assay: Tumor cell growth inhibition by MTS method, BGC823; format: cell-based; conditions: Homo sapiens, BGC-823; BGC823, 3.3 μM; read-out: Inhibition rate %
# Method: (§5) III. Determination of IC50 Value of Compound for Inhibiting Tumor Cell Growth by MTS Method
# (§6) 1. Cell plating: cells in logarithmic growth phase were counted and inoculated in a 96-well plate (20000 cells per well).
# (§7) 2. Administrating agent to cell: 10 mM compound mother solution in DMSO was subjected to 3 fold-gradient dilution, to set 8 concentrations, which were then added to various wells, with three replicates for each concentration, and three blank wells (only culture medium) and three negative controls (containing 0.1% DMSO) on each plate.
# (§8) 3. […] The OD value at 490 nm was measured with microplate reader OD490. The cell growth inhibition rate was calculated by the following formula: Cell growth inhibition rate %=1−(ODexperimental group−ODblank group)/(ODnegative group−ODblank group)×100%
# [9] = system: HepG2; assay: Tumor cell growth inhibition by MTS method, HepG2; format: cell-based; conditions: Homo sapiens; HepG2, 3.3 μM; read-out: Inhibition rate %
# Method: as §5, §6, §7, §8
# [10] = system: SK-MEL-28; assay: Tumor cell growth inhibition by MTS method, SK-MEL-28; format: cell-based; conditions: Homo sapiens; SK-MEL-28, 3.3 μM; read-out: Inhibition rate %
# Method: as §5, §6, §7, §8
# [11] = system: A375; assay: Tumor cell growth inhibition by MTS method, A375; format: cell-based; conditions: Homo sapiens, A-375; A375, 3.3 μM; read-out: Inhibition rate %
# Method: as §5, §6, §7, §8
# [12] = system: MDA-MB-435S; assay: Tumor cell growth inhibition by MTS method, MDA-MB-435S; format: cell-based; conditions: Homo sapiens, read-out: Inhibition rate %
# Method: as §5, §6, §7, §8
# [13] = system: MDA-MB-231; assay: Tumor cell growth inhibition by MTS method, MDA-MB-231; format: cell-based; conditions: Homo sapiens; MDA-MB-231, 3.3 μM; read-out: Inhibition rate %
# Method: as §5, §6, §7, §8
# [14] = system: MCF-7; assay: Tumor cell growth inhibition by MTS method, MCF-7; format: cell-based; conditions: Homo sapiens, MCF7; MCF-7, 3.3 μM; read-out: Inhibition rate %
# Method: as §5, §6, §7, §8
# [15] = system: MDA-MB-231 xenograft; assay: Xenograft model of triple negative breast cancer cells (MDA-MB-231) in nude mice; format: in vivo
# Method: 1. 4-6 weeks old female nude mice were injected subcutaneously with about 5×10^6 MDA-MB-231 cells;
# 2. When tumor volume (length×width×height×0.5) reached about 100 mm^3, the mice were randomly divided into three groups: control group, group with a dose of 5 mg/kg once a day, and group with a dose of 20 mg/kg once a day, and the initial tumor volume was recorded.
# 3. The drug or the control solvent was administered intravenously on time every day, the tumor volume was measured every day, and the procedures were continued for 12 days;
# as §1
# [16] = system: HCT116; assay: Tumor cell growth inhibition by MTS method, HCT116; format: cell-based; conditions: Homo sapiens, HCT-116; HCT116, 3.3 μM; read-out: Inhibition rate %
# Method: as §5, §6, §7, §8
# [17] = system: SK-MEL-30; assay: Tumor cell growth inhibition by MTS method, SK-MEL-30; format: cell-based; conditions: Homo sapiens; SK-MEL-30, 3.3 μM; read-out: Inhibition rate %
# Method: as §5, §6, §7, §8
# [18] = system: A549; assay: Tumor cell growth inhibition by MTS method, A549; format: cell-based; conditions: Homo sapiens; A549, 3.3 μM; read-out: Inhibition rate %
# Method: as §5, §6, §7, §8
structure (smiles),measurement,setting,value
COc1ccc(C(=O)Nc2cccc(C(F)(F)F)c2)cc1Nc1nc(-c2cccnc2)c2[nH]ccc2n1 [V-c-17],immature cathepsin A and cathepsin D (Western Blot),[1],"immature cathepsins A and D gradually increase, with good dose dependence; also recorded: immature cathepsin A and cathepsin D increased, and had good concentration dependence"
same,tumor volume,"[2]; JeKo-1 xenograft mice, tail vein, FIG. 5a","effectively inhibit the increase of tumor volume, with good dose dependence"
same,final tumor weight,"[2]; JeKo-1 xenograft mice, tail vein, FIG. 5b","significantly smaller than that in the control group, with good dose dependence"
same,tumor growth,"[2]; JeKo-1 xenograft, nude mice, intravenous, 7 days, FIG. 5",Effectively Inhibited Tumor Growth
same,"degree of vacuolation, 1 μM, 24 h",[3],++
same,"degree of vacuolation, 1 μM, 48 h",[3],−
same,"degree of vacuolation, 10 μM, 24 h",[3],++
same,"degree of vacuolation, 10 μM, 48 h",[3],+
same,IC50,[4],743 nM
same,inhibition at 3.3 µM,[5],99.7%
same,Kd,[6],640 nM
same,inhibition at 3.3 µM,[7],95.7%
Cc1ccc(NC(=O)c2cccc(C(F)(F)F)c2)cc1Nc1cc(-c2cccnc2)nc2[nH]ccc12 [I-a-1],inhibition at 3.3 µM,[8],54%
same,inhibition at 3.3 µM,[9],64.8%
same,inhibition at 3.3 µM,[10],64%
same,inhibition at 3.3 µM,[11],94%
same,inhibition at 3.3 µM,[12],56.2%
same,inhibition at 3.3 µM,[13],48.4%
same,inhibition at 3.3 µM,[14],44.2%
same,"degree of vacuolation, 1 μM, 24 h",[3],+++
same,"degree of vacuolation, 1 μM, 48 h",[3],+++
same,"degree of vacuolation, 10 μM, 24 h",[3],+++
same,"degree of vacuolation, 10 μM, 48 h",[3],+++
same,tumor volume,"[15]; MDA-MB-231 xenograft mice, tail vein, 5 mg/kg, 20 mg/kg every day, FIG. 4a","effectively inhibit the increase of tumor volume, with good dose dependence"
same,final tumor weight,"[15]; MDA-MB-231 xenograft mice, tail vein, 5 mg/kg, 20 mg/kg every day, FIG. 4b","significantly smaller than that in the control group, with good dose dependence"
same,tumor growth,"[15]; MDA-MB-231 xenograft, nude mice, intravenous, 5 mg/kg and 20 mg/kg once a day, 12 days, FIG. 4",Effectively Inhibited Tumor Growth
same,inhibition at 3.3 µM,[16],55.8%
same,inhibition at 3.3 µM,[17],61.9%
same,IC50,[4],2040 nM
same,inhibition at 3.3 µM,[18],65.3%
